In ChEMBL document CHEMBL2429833, “A new class of bactericidal agents against S. aureus, MRSA and VRE derived from bisindolylmethane” (Med Chem Res, 2013):
In brackets after ≈: the same amount, converted by molar mass. Activity calls are given as the source filed them. The calls are words filed in the database; no cut-off is given here.

Assays:
[1] = test system: Pseudomonas aeruginosa; experiment: Antibacterial activity against Pseudomonas aeruginosa ATCC 27853 after 24 hrs by microdilution method; type: functional, organism-based
[2] = test system: Escherichia coli; experiment: Antibacterial activity against Escherichia coli ATCC 25922 after 24 hrs by microdilution method; type: functional, organism-based
[3] = test system: Enterococcus faecalis; experiment: Bactericidal activity against vancomycin-resistant Enterococcus faecalis after 24 hrs; type: functional
[4] = test system: Staphylococcus aureus; experiment: Bactericidal activity against methicillin-resistant Staphylococcus aureus after 24 hrs; type: functional
[5] = test system: Staphylococcus aureus; experiment: Bactericidal activity against Staphylococcus aureus ATCC 29213 after 24 hrs; type: functional; settings: ATCC 29213, 24 h
[6] = test system: Enterococcus faecalis; experiment: Antibacterial activity against vancomycin-resistant Enterococcus faecalis after 24 hrs by microdilution method; type: functional
[7] = test system: Staphylococcus aureus; experiment: Antibacterial activity against methicillin-resistant Staphylococcus aureus after 24 hrs by microdilution method; type: functional
[8] = test system: Staphylococcus aureus; experiment: Antibacterial activity against Staphylococcus aureus ATCC 29213 after 24 hrs by microdilution method; type: functional; settings: ATCC 29213, 24 h
[9] = test system: A549; experiment: Cytotoxicity against human A549 cells after 48 hrs by MTT assay; type: functional, cell-based
[10] = test system: HeLa; experiment: Cytotoxicity against human HeLa cells after 48 hrs by MTT assay; type: functional, cell-based
[11] = test system: PC-3; experiment: Cytotoxicity against human PC3 cells after 48 hrs by MTT assay; type: functional, cell-based

Row | Structure (SMILES) | Activity [1] | Activity [2] | MBC [3] [µg/mL] | MBC [4] [µg/mL] | MBC [5] [µg/mL] | MIC [6] [µg/mL] | MIC [7] [µg/mL] | MIC [8] [µg/mL] | IC50 [9] [µM] | IC50 [10] [µM] | IC50 [11] [µM]
1 | COc1ccc2c(c1)OC(C)(C)CC2(c1c[nH]c2ccc(Br)cc12)c1c[nH]c2ccc(Br)cc12 | inactive | inactive | 8 (≈ 13.8 µM) | 8 (≈ 13.8 µM) | 4 (≈ 6.89 µM) | 8 (≈ 13.8 µM) | 4 (≈ 6.89 µM) | 4 (≈ 6.89 µM) | – | – | –
2 | O=[N+]([O-])c1ccc(C(c2c[nH]c3ccc(Br)cc23)c2c[nH]c3ccc(Br)cc23)cc1 | inactive | inactive | 8 (≈ 15.2 µM) | 8 (≈ 15.2 µM) | 4 (≈ 7.62 µM) | 8 (≈ 15.2 µM) | 8 (≈ 15.2 µM) | 4 (≈ 7.62 µM) | – | – | –
3 | Fc1ccc(Cn2cc(C(c3ccc(F)cc3)c3cn(Cc4ccc(F)cc4)c4ccc(Br)cc34)c3cc(Br)ccc32)cc1 | – | – | – | – | – | > 128 | > 128 | > 128 | 8.7 | 1.1 | 36.5
4 | Oc1cccc(C(c2c[nH]c3ccc(Br)cc23)c2c[nH]c3ccc(Br)cc23)c1 | inactive | inactive | 8 (≈ 16.1 µM) | 2 (≈ 4.03 µM) | 1 (≈ 2.02 µM) | 4 (≈ 8.06 µM) | 2 (≈ 4.03 µM) | 1 (≈ 2.02 µM) | – | – | –
5 | CC(C)(c1c[nH]c2ccc(Br)cc12)c1c[nH]c2ccc(Br)cc12 | inactive | inactive | – | – | – | > 256 | > 256 | > 256 | – | – | –
6 | Brc1ccc2[nH]cc(C(c3c[nH]c4ccc(Br)cc34)C3CCCCC3)c2c1 | inactive | inactive | 32 (≈ 65.8 µM) | 32 (≈ 65.8 µM) | 32 (≈ 65.8 µM) | 32 (≈ 65.8 µM) | 32 (≈ 65.8 µM) | 16 (≈ 32.9 µM) | – | – | –
7 | CCCCCCCCC(c1c[nH]c2ccc(Br)cc12)c1c[nH]c2ccc(Br)cc12 | inactive | inactive | – | – | – | > 256 | > 256 | > 256 | – | – | –
8 | CN(C)c1ccc(C(c2c[nH]c3ccc(Br)cc23)c2c[nH]c3ccc(Br)cc23)cc1 | inactive | inactive | – | – | – | 256 (≈ 489 µM) | 128 (≈ 245 µM) | 64 (≈ 122 µM) | – | – | –
9 | CC1(C)CC(c2c[nH]c3ccc(Br)cc23)(c2c[nH]c3ccc(Br)cc23)c2ccc(O)cc2O1 | inactive | inactive | 4 (≈ 7.06 µM) | 2 (≈ 3.53 µM) | 2 (≈ 3.53 µM) | 4 (≈ 7.06 µM) | 2 (≈ 3.53 µM) | 2 (≈ 3.53 µM) | – | – | –
10 | Brc1ccc2[nH]cc(C(c3ccccc3)c3c[nH]c4ccc(Br)cc34)c2c1 | inactive | inactive | – | – | – | 256 (≈ 533 µM) | 256 (≈ 533 µM) | 256 (≈ 533 µM) | – | – | –
11 | CCOc1ccc2c(c1)OC(C)(C)CC2(c1c[nH]c2ccc(Br)cc12)c1c[nH]c2ccc(Br)cc12 | inactive | inactive | 32 (≈ 53.8 µM) | 32 (≈ 53.8 µM) | 8 (≈ 13.5 µM) | 32 (≈ 53.8 µM) | 32 (≈ 53.8 µM) | 8 (≈ 13.5 µM) | – | – | –
12 | COc1ccc(C(c2c[nH]c3ccc(Br)cc23)c2c[nH]c3ccc(Br)cc23)c(OC)c1 | inactive | inactive | – | – | – | > 256 | 256 (≈ 474 µM) | 256 (≈ 474 µM) | – | – | –
13 | Brc1ccc(C(c2c[nH]c3ccc(Br)cc23)c2c[nH]c3ccc(Br)cc23)cc1 | inactive | inactive | 64 (≈ 114 µM) | 64 (≈ 114 µM) | 16 (≈ 28.6 µM) | 64 (≈ 114 µM) | 32 (≈ 57.2 µM) | 8 (≈ 14.3 µM) | – | – | –
14 | COc1ccc(C(c2c[nH]c3ccc(Br)cc23)c2c[nH]c3ccc(Br)cc23)cc1OC | inactive | inactive | – | – | – | 256 (≈ 474 µM) | 256 (≈ 474 µM) | 128 (≈ 237 µM) | – | – | –
15 | Fc1ccc(C(c2cn(Cc3ccc(Cl)cc3)c3ccc(Br)cc23)c2cn(Cc3ccc(Cl)cc3)c3ccc(Br)cc23)cc1 | – | – | – | – | – | > 128 | > 128 | > 128 | 22.8 | 18.5 | 38.5
16 | COc1ccc(OC)c(C(c2c[nH]c3ccc(Br)cc23)c2c[nH]c3ccc(Br)cc23)c1 | inactive | inactive | – | – | – | > 256 | 256 (≈ 474 µM) | 128 (≈ 237 µM) | – | – | –
17 | CCCCCn1cc(C(c2ccc(F)cc2)c2cn(CCCCC)c3ccc(Br)cc23)c2cc(Br)ccc21 | – | – | – | – | – | > 128 | > 128 | > 128 | 32.5 | 27.2 | 40.3
18 | CCCC(c1c[nH]c2ccc(Br)cc12)c1c[nH]c2ccc(Br)cc12 | inactive | inactive | – | – | – | > 256 | > 256 | > 256 | – | – | –
